Molecules are shown by their SMILES. Values joined by “and” are separate entries in the source; they are usually repeats but may differ in a detail not shown here. Identical values can stand only once.

We go through five compounds from US6074626A (Molecular Radiation Management, Inc., priority 1999, dated 2000).

One data set relates to hepatoma. As to conditions: given systemically; cited from earlier work.
A short description of data set [1]: Safety of ^195m cisplatinum given by HAI. As to conditions: six patients. The data set is classed as in vivo. The protocol:
(§1) The rationale for HAI cisplatinum was evaluated in a diagnostic quantitative study trial utilizing radioactive ^195m cisplatinum. The radiopharmaceutical was prepared using a ^194 Pt target and irradiation from neutron flux in a fission reactor (45,46). […] The study was approved by the institutional review board and radiation safety committee of Cooper Hospital University Medical Center for use of up to a 1.0 mCi dose of ^195m cisplatinum, delivered intra-arterially. Institutional Review Board approved informed consent documents were signed by all patients participating in this study.
Because of a high response rate to intra-arterial cisplatinum compared to intravenous delivery a study was done to estimate whether there was a differential tumor uptake of cisplatinum. Patients were given similar tracer doses of ^195m cisplatinum, first intravenously then by HAI. It was estimated that the maximum dose for this diagnostic quantitative trial would be 1.0 mCi, which would yield an estimated absorbed dose no greater than 5 centigray to the kidneys and therefore not cause toxicity. […] FIG. 6 is an example of their gamma camera study done the same day following the intra-arterial injection of 1.0 mCi ^195 Pt cisplatinum. […] Table 4 summarizes the data for this diagnostic quantitative trial following HAI of ^195m cisplatinum. […]

The test system of the next data set is tumor (hepatoma). Description: Scintigraphic scans of 195^m cisplatin given intravenously and intra-arterially to the same patient. The data set is classed as in vivo. The text has this: When the drug was given intravenously,less than five percent deposited in the tumor. When the drug was given intra-arterially, 35 to 40 percent of the drug deposited in the tumor, as witnessed by scintigraphic scans.
(§2) Because of a high response rate to intra-arterial cisplatinum compared to intravenous delivery a study was done to estimate whether there was a differential tumor uptake of cisplatinum. Patients were given similar tracer doses of ^195m cisplatinum, first intravenously then by HAI. It was estimated that the maximum dose for this diagnostic quantitative trial would be 1.0 mCi, which would yield an estimated absorbed dose no greater than 5 centigray to the kidneys and therefore not cause toxicity. […] FIG. 6 is an example of their gamma camera study done the same day following the intra-arterial injection of 1.0 mCi ^195 Pt cisplatinum. […] Table 4 summarizes the data for this diagnostic quantitative trial following HAI of ^195m cisplatinum. As shown, the mean tumor uptake was 48.4% (range 34.2-55.4%) of the given activity and the mean ratio of tumor-to-liver uptake was 2.1 (range 1.6-2.4).

A further data set deals with viable hepatoma. Kind of data set: Diagnostic quantitation of tumor uptake by ^195m cisplatinum gamma camera imaging after HAI. The data set is classed as in vivo, patients. How it is done:
as §1
Platinum-195m is a radionuclide with a physical half-life of 4.02 days. As it decays by isomeric transition it emits several photons imageable by scintillation camera. Six patients were imaged thirty minutes after administration of ^195m cisplatinum (252-1011 μCi) using a dual-head gamma camera system equipped with low-energy parallel-hole collimators. The camera was peaked at 76 keV with an energy window setting of 37%. […] Tumors and normal liver containing Pt-195m uptake were identified and appropriate regions of interest drawn. The method used for quantitation of the radioactivity utilized conjugate view images (180° opposed anterior and posterior planar images). Prior to patient studies a phantom study was performed under fixed geometry to determine a correction factor for patient attenuation and scatter and a system calibration factor. The phantom consisted of a simulated tumor containing 277.5 μCi of Pt-195m in an abdominal phantom filled with water to simulate patient attenuation and scatter. […] The activities determined from the conjugate view counting technique were divided by the administered activity and multiplied by 100 to obtain the percent tumor uptakes. Tumor-to-normal liver ratios were determined from the various regions of interest.
as §2

Data set [2] relates to hepatocellular carcinoma. Particulars: intravenous, cited from earlier work.
In data set [3] the test system is non-resectable hepatocellular carcinoma. Description: Remission and survival of hepatoma patients treated monthly with hepatic artery infusion (HAI) of cisplatinum at 50 mg/m^2. The data set is classed as in vivo. Also on record: median survival, increase over the six months reported from other regimens: unit not given here. As to conditions: for survival: one patient. The text has this: Patient population: All patients were required to have histologic documentation of hepatocellular carcinoma. Pre-treatment evaluation included a complete medical history and physical examination, hepatitis virus status and complete blood cell counts, biochemical survey including lactate dehydrogenase, alkaline phosphatase, BUN, creatinine, bilirubin, PT/PTT and alpha fetoprotein (AFP) level; radiographic studies including CT scans of the chest, abdomen and pelvis with volumetric reconstruction of both tumor and normal liver volumes allowed determination of percentage of liver replacement by tumor. The presence of ascites was determined using both clinical examination and imaging results. Excluded were patients with a creatinine >1.5 and/or BUN >25. All patients gave written informed consent. Prior to referral to our facility 23 patients (34%) had multiple chemotherapeutic regimens. Of the 67 patients, 44 (65%) were treated with external beam radiation to the involved liver as a component of the prescribed treatment program. Assessment of liver function was done using the modified Childs-Pugh classification (41). The American Joint Committee on Cancer staging system was used to stage tumor extent in all patients (42). […]
Intrahepatic arterial chemotherapy: The infusion was performed either with a temporary percutaneous femoral or axillary artery catheter or implanted port or pump. On the day prior to treatment the patients were instructed to take 1 to 2 liters of fluid orally. On admission, 1 liter of 5% dextrose in normal saline with 20 meq potassium was given intravenously. Utilizing a femoral or axillary artery transcutaneous approach an arteriogram of the common hepatic artery was done. Next, cisplatinum 50 mg/m^2 was dissolved to a concentration of 1 mg per ml of sterile water. The solution was then infused intra-arterially at a rate of 1 mg/minute. The chemotherapy was always infused into the most distal artery feeding the main mass of the tumor. Appropriate antiemetic therapy, generally Odansetron 0.15 mg/kg IV and dexamethasone 20 mg IV was administered before the cisplatinum infusion and as needed after the infusion. On discharge home patients were given an oral antiemetic regimen of Lorazepam 1 mg, every six hours, or Odansetron 8 mg every twelve hours, as needed and Dexamethasone 4 mg every six hours for one day. Patients continued monthly HAI of cisplatinum until evidence of progressive disease or death. All patients were assessable for response.
Assessment of response: Routine clinical examinations and laboratory testing were performed at monthly intervals or as clinically indicated. The defined improvements on a minimum of two CT scans and/or AFP titers obtained at least two months apart were required to delineate response. Tumor volumes were quantified by computed tomography scan volumetric analysis of the liver as previously reported (20,43). Complete remission was the disappearance of all clinical evidence of tumor for a minimum of one month. Partial remission was a decrease of 50% or more in the volume of all measurable lesions measured on contrast-enhanced CT scan or a ≥50% reduction in AFP titer. Stable disease was a <50% decrease or <25% increase in tumor volume or AFP titer. Progressive disease was the increase of at least 25% in the tumor volume of all measurable lesions on CT scan or by AFP titer. Toxicity was assessed monthly during HAI therapy using RTOG criteria (44) with scores ≥3 considered to be major toxicities.
Statistical methods: The log-rank procedure was used to test for any statistical differences in survival distribution between patient populations (47). Survival curves were generated by the Kaplan Meier technique (48). Each survival curve was plotted as a step function of the Kaplan-Meier estimates.
Intra-arterial hepatic infusions were given to 67 patients with non-resectable hepatocellular carcinoma treated between July 1991 and September 1997. […]

The test system is the same in data set [4]. The data set is described as above. The data set is classed as in vivo. As to conditions: intra-arterial, 50 mg/m^2, 28 patients.
The subject of data set [5] is hepatocellular carcinoma. Particulars: subcutaneously; untreated controls 4 months; cited from earlier work.
Where [6] appears, read: HAI, per patient (b206-b211 = patients 1-6), thirty minutes after administration.
Where [7] appears, read: intra-arterial, tracer quantities.
Where [8] appears, read: HAI after failing previous therapy, disease confined to liver, AFP (+).
Where [9] appears, read: HAI after failing previous therapy, disease confined to liver, AFP (-).

`O=c1[nH]cc(F)c(=O)[nH]1` [5-FU, 5-fluorouracil]: in the data set with hepatoma, the effectiveness entry is listed as “inconsistently effective”.
`[NH2][195Pt]([NH2])([Cl])[Cl]` [^195m cisplatinum]: the adverse events entry in data set [1] is recorded as “no adverse events occurred”. Besides, the “drug deposited in the tumor” value in the data set with tumor (hepatoma) (intravenous) is “less than five”. Also, in the data set on viable hepatoma (HAI), the “concentration in viable hepatoma (imaging)” value is on record as “hyperconcentration”. In the data set on viable hepatoma (setting [6]), the Tumor uptake is 55.4% and 49.6% and 52.8% and 48.3% and 34.2% and 50.3%; the Tumor-to-liver uptake ratio was 1.6 and 2.3 and 2.4 and 2.1 and 2.0. The Tumor activity with viable hepatoma (HAI, per patient (b206-b211 = patients 1-6), thirty minutes after administration, administered 252-1011 μCi) was 140 μCi and 501 μCi and 528 μCi and 489 μCi and 343 μCi and 503 μCi. For the same compound, in the data set with viable hepatoma (HAI, six patients), the “mean ratio of tumor-to-liver uptake” value was determined as 2.1, the “mean tumor uptake of the given activity” value worked out at 48.4%, the “range of ratio of tumor-to-liver uptake” value is on record as 1.6-2.4 and the “range of tumor uptake of the given activity” value was 34.2-55.4%. In addition, the “exposure of the tumor vs intravenous route” value in the data set with viable hepatoma (intra-arterial, tracer amounts) is on record as “selectively exposes the tumor to higher drug levels than can be achieved by the intravenous route”. In addition, in the data set on viable hepatoma (setting [7]), the kinetics entry is on record as “first-pass kinetics” and the selective tumor uptake is reported as 34-55 % of administered dose.
On to `N.N.[Cl][Pt][Cl]` [cisplatin, cisdiamminedichloroplatinum], for which the response rate entry is on record as “less than five” with hepatocellular carcinoma [2] and at least 50% in data set [3] (arterial route). The “response rate (in words)” value in the data set on hepatocellular carcinoma [2] (single drug) was “relatively poor response rate”. For the same compound, the median survival turned out to be 12 months in data set [3] (AFP positive patients, as compared with octreotide study); 17.3 months in data set [3] (setting [8]); 46.3 months in data set [3] (setting [9]); 8.9 months in data set [3] (HAI after prior treatment failure, extra-hepatic metastases, AFP (+)/elevated); 11.1 months in data set [3] (HAI after prior treatment failure, extra-hepatic metastases, AFP (-)/not elevated); 12.0 months in data set [3] (HAI as primary therapy, disease confined to liver, AFP (+)). The median survival in data set [3] (HAI as primary therapy, disease confined to liver, AFP (-)) is 17.5 months; in data set [3] (HAI as primary therapy, extra-hepatic metastases, AFP (+)/elevated), 7.1 months; in data set [3] (HAI, AFP (+), all patients), 10.3 months; in data set [3] (HAI, AFP (-), all patients, listed as cisplatinum), 21.8 months and 21 months; in data set [3] (HAI, chronic Hepatitis B or C, regardless of AFP status), 10.7 months. The results for the “alive at one year” value in data set [3] (setting [8]) and in data set [3] (setting [9]) were 56% and 75%, respectively. Further, the survival in data set [3] (HAI as primary therapy, extra-hepatic metastases, AFP (-)/not elevated, listed as HAI-CDDP) is given as 21.0 months; in data set [3] (HAI as primary therapy, extra-hepatic metastases, AFP (-)/not elevated, listed as cisplatinum), 21 months. Also, in data set [3] (HAI, 50 mg/m^2), the long term remission result is reported as “long term remission can be obtained”. Besides, the “overall survival at one year” value in data set [3] (HAI, AFP (+), all patients) amounted to 45%; in data set [3] (HAI, AFP (-), all patients) it was 59%. For the same compound, the “significance of overall survival difference AFP (+) vs AFP (-)” value in data set [3] (HAI, log rank) was “significantly different”. Besides, the overall median survival in data set [3] (HAI, present study group) worked out at 10.3 months. Besides, the response in data set [3] (intra-arterial, 67 patients) stood at 50%. The remission in data set [3] (intra-arterial, 95 patients combined) is 50%; in data set [4], 50%. In data set [3] (worst group of hepatomas (AFP+ positive), intra-arterial), the “median survival, increase over the six months reported from other regimens” value is “one”. Further, the “binding on the hepatoma, persistence” value in the data set with tumor (hepatoma) (intra-arterial) is “apparently stays there for a persistent period of time”.
As to `CO[C@@]12[C@H](COC(N)=O)C3=C(C(=O)C(C)=C(N)C3=O)N1C[C@@H]1N[C@@H]12` [mitomycin], the effectiveness result in the data set on hepatoma is recorded as “inconsistently effective”.
As for `C[C@@H](O)[C@@H]1NC(=O)[C@H](CCCCN)NC(=O)[C@@H](Cc2c[nH]c3ccccc23)NC(=O)[C@H](Cc2ccccc2)NC(=O)[C@@H](NC(=O)[C@H](N)Cc2ccccc2)CSSC[C@@H](C(=O)N[C@H](CO)[C@@H](C)O)NC1=O` [octreotide], the median survival in the data set on hepatocellular carcinoma [5] is 13 months.
